Reference: patent publication US7423008B2, “Derivatives of mithramycin and methods of making and uses thereof” (University of Kentucky Research Foundation, priority 2004, dated 2008)

Legend:
[1] = system: Lung (NCI-H460); experiment: Proliferation inhibition assay (sulforhodamin B uptake), lung cells; assay type: cell-based
Protocol: (§1) The experiment was performed by Biotecon, Berlin. It measures the uptake of sulforhodamin B (SRB), which is dependent on the cellular protein quantities, and can be performed in 96-well microtiter plates according to the protocol published by Boyd et al. (NCI). The SRB assay is a rapid and sensitive method to measure drug-induced cytotoxicity. Briefly, cells will be incubated with and without drug for 72 hours (drugs will be added after 24 hours), fixed with TCA (trichloroacetic acid), and stained for 30 minutes using a 0.4% (w/v) SRB solution in […]. Cultures will then be rinsed with 1% acetic acid, residual wash solution will be removed and air-dried. Bound dye will be solubilized with 10 mM unbuffered Tris base (pH 10.5) for 5 min., and the optical density (OD) will be measured with amicrotiter plate reader at 564 nm. (Skehan, P. et al., “New calorimetric cytotoxicity assay for anticancer-drug screening,” Journal of the National Cancer Institute, 1990. 82(13): p. 1107-1112).

[2] = system: Breast (MCF-7); experiment: Proliferation inhibition assay (sulforhodamin B uptake), breast cells; assay type: cell-based; conditions: concentration 1 × 10^−5 molar
Protocol: as §1

[3] = system: CNS (SF-268); experiment: Proliferation inhibition assay (sulforhodamin B uptake), CNS cells; assay type: cell-based
Protocol: as §1

[4] = system: Leukemia cell lines; experiment: Sulforhodamine B assay, 60 cell line panel: leukemia; assay type: cell-based, human; conditions: for GI50: Homo sapiens, 60 cell, 5 cell lines, read-out: Average Log(GI50) (converted); for AIF (activity improvement factor, 10^Δ1−x): versus 1
Protocol: (§2) The cytotoxicity of Mithramycin-SK and demycarosyl-mithramycin-SK were assessed in a panel of 60 cell lines using a sulforhodamine B assay. It is active against a variety of tumor cell lines in the concentration range of 10^−5 to 10^−8 molar. Cell lines were inoculated into a series of 96-well microliter plates with varying seeding densities depending on the growth characteristics of the particular cell lines. Following a 24 hour drug-free incubation, mithramycin-SK was added routinely at five 10-fold dilutions with maximum concentration of […]. After 48 hours of drug exposure, the change in protein stain optical density allowed the inhibition of cell growth to be analyzed.

[5] = system: NSCLC cell lines; experiment: Sulforhodamine B assay, 60 cell line panel: NSCLC; assay type: cell-based, human; conditions: for GI50: Homo sapiens, 60 cell, 8 cell lines, read-out: Average Log(GI50) (converted); for AIF (activity improvement factor, 10^Δ1−x): versus 1
Protocol: as §2

[6] = system: Colon cancer cell lines; experiment: Sulforhodamine B assay, 60 cell line panel: colon; assay type: cell-based, human; conditions: for GI50: Homo sapiens, 60 cell, 7 cell lines, read-out: Average Log(GI50) (converted); for AIF (activity improvement factor, 10^Δ1−x): versus 1
Protocol: as §2

[7] = system: CNS cancer cells; experiment: Sulforhodamine B assay, 60 cell line panel: CNS; assay type: cell-based, human; conditions: for GI50: Homo sapiens, 60 cell, 5 cell lines, read-out: Average Log(GI50) (converted); for AIF (activity improvement factor, 10^Δ1−x): versus 1
Protocol: as §2

[8] = system: Melanoma cell lines; experiment: Sulforhodamine B assay, 60 cell line panel: melanoma; assay type: cell-based, human; conditions: for GI50: Homo sapiens, 60 cell, 8 cell lines, read-out: Average Log(GI50) (converted); for AIF (activity improvement factor, 10^Δ1−x): versus 1
Protocol: as §2

[9] = system: Ovarian cancer cell lines; experiment: Sulforhodamine B assay, 60 cell line panel: ovarian; assay type: cell-based, human; conditions: for GI50: Homo sapiens, 60 cell, 6 cell lines, read-out: Average Log(GI50) (converted); for AIF (activity improvement factor, 10^Δ1−x): versus 1
Protocol: as §2

[10] = system: Renal cancer cell lines; experiment: Sulforhodamine B assay, 60 cell line panel: renal; assay type: cell-based, human; conditions: for GI50: Homo sapiens, 60 cell, 8 cell lines, read-out: Average Log(GI50) (converted); for AIF (activity improvement factor, 10^Δ1−x): versus 1
Protocol: as §2

[11] = system: Prostrate cancer cell lines; experiment: Sulforhodamine B assay, 60 cell line panel: prostate; assay type: cell-based, human; conditions: for GI50: Homo sapiens, 60 cell, 2 cell lines, read-out: Average Log(GI50) (converted); for AIF (activity improvement factor, 10^Δ1−x): versus 1
Protocol: as §2

[12] = system: Breast cancer cell lines; experiment: Sulforhodamine B assay, 60 cell line panel: breast; assay type: cell-based, human; conditions: for GI50: Homo sapiens, 60 cell, 8 cell lines, read-out: Average Log(GI50) (converted); for AIF (activity improvement factor, 10^Δ1−x): versus 1
Protocol: as §2

[13] = system: Squamous carcinoma; experiment: Neutral red assay, squamous carcinoma; assay type: cell-based; conditions: for GI50: read-out: Average Log(GI50) (converted)
Excerpt: (§3) Mithramycin-SK was particularly active against melanoma, leukemia, and CNS cancer cells (log(GI50) values of −7.64, −7.59, and −7.61, respectively).

[14] = system: Melanoma; experiment: Neutral red assay, melanoma; assay type: cell-based; conditions: for GI50: read-out: Average Log(GI50) (converted)
Excerpt: as §3

[15] = system: Lung carcinoma; experiment: Neutral red assay, lung carcinoma; assay type: cell-based; conditions: for GI50: read-out: Average Log(GI50) (converted)
Excerpt: as §3

[16] = system: Breast carcinoma; experiment: Neutral red assay, breast carcinoma; assay type: cell-based; conditions: for GI50: read-out: Average Log(GI50) (converted)
Excerpt: as §3

[17] = system: non-tumorous mouse fibroblast cells (NIH 3T3); experiment: Neutral red toxicity assay on non-tumorous fibroblasts; assay type: cell-based; conditions: for IC50: NIH3T3, neutral red
Protocol: Mithramycin-SK and demycarosyl-mithramycin-SK were also tested in a neutral red toxicity assay. In this experiment, non-tumorous mouse fibroblast cells were used (NIH 3T3).
as §3

[18] = system: 60 human cancer cell lines; experiment: Sulforhodamine B cytotoxicity assay, whole panel of 60 cell lines (NCI); assay type: cell-based
Protocol: The mithramycin SK has antitumor activity substantially higher than that of MTM and is particularly active against melanoma, leukemia and CNS cancer cells.
as §2

[19] = system: squamous, melanoma, lung, and breast carcinomas; experiment: Neutral red uptake analysis of carcinomas, overall; assay type: cell-based; conditions: cells not given
Excerpt: as §3

[20] = mouse 3T3 fibroblast (nontumor) cells
[21] = concentration 1 × 10^−4.6 molar

Row | Structure (SMILES) | Percent Growth in 48 Hours, Lung (NCI-H460) ([1]; concentration 1 × 10^−5 molar) | Percent Growth in 48 Hours, Breast (MCF-7) [2] | Percent Growth in 48 Hours, CNS (SF-268) ([3]; concentration 1 × 10^−5 molar) | GI50 [4] | AIF (activity improvement factor, 10^Δ1−x) [4] | GI50 [5] | AIF (activity improvement factor, 10^Δ1−x) [5] | GI50 [6] | AIF (activity improvement factor, 10^Δ1−x) [6] | GI50 [7] | AIF (activity improvement factor, 10^Δ1−x) [7] | GI50 [8] | AIF (activity improvement factor, 10^Δ1−x) [8] | GI50 [9] | AIF (activity improvement factor, 10^Δ1−x) [9] | GI50 [10] | AIF (activity improvement factor, 10^Δ1−x) [10] | GI50 [11] | AIF (activity improvement factor, 10^Δ1−x) [11] | GI50 [12] | other results
1 | COC(C(O)C(C)=O)[C@@H]1Cc2cc3cc(OC4CC(OC5CC(O)C(O)C(C)O5)C(O)C(C)O4)c(C)c(O)c3c(O)c2C(=O)[C@H]1OC1CC(OC2CC(O)C(O)C(C)O2)C(O)C(C)O1 (stereo partly drawn) [Demycarosyl-Mithramycin-SK, Demycarosyl-mithramycin-SK] | 5% | 22% | 47% | 2820 nM | 0.08 | 5010 nM | 0.04 | 4470 nM | 0.05 | 5010 nM | 0.03 | 4270 nM | 0.04 | 5890 nM | 0.04 | 7240 nM | 0.03 | 5620 nM | 0.02 | 7080 nM | AIF (activity improvement factor, 10^Δ1−x) [12]: 0.04
2 | COC(C(O)C(C)=O)[C@@H]1Cc2cc3cc(OC4CC(OC5CC(O)C(O)C(C)O5)C(O)C(C)O4)c(C)c(O)c3c(O)c2C(=O)[C@H]1OC1CC(OC2CC(OC3CC(C)(O)C(O)C(C)O3)C(O)C(C)O2)C(O)C(C)O1 (stereo partly drawn) [Mithramycin-SK, mithramycin-SK] | 0.1% | 0.2% | 1% | 25.7 nM | 8.7 | 42.7 nM | 4.4 | 47.9 nM | 4.7 | 24.5 nM | 6.8 | 22.9 nM | 8.3 | 29.5 nM | 8.5 | 51.3 nM | 3.6 | 33.1 nM | 3.8 | 1290 nM | AIF (activity improvement factor, 10^Δ1−x) [12]: 0.2; GI50 [13]: 1020 nM; AIF (activity improvement factor, 10^Δ1−x) ([13]; versus 1): 8.9; GI50 [14]: 562 nM; AIF (activity improvement factor, 10^Δ1−x) ([14]; versus 1): 15.8; GI50 [15]: 132 nM; AIF (activity improvement factor, 10^Δ1−x) ([15]; versus 1): 91.2; GI50 [16]: 182 nM; AIF (activity improvement factor, 10^Δ1−x) ([16]; versus 1): 61.6; toxicity (concentration still without toxicity) ([17]; NIH 3T3, after 24 hours of incubation): > 200 µg/mL; IC50 [17, 20]: 19600 nM; toxicity compared to parent compound MTM ([17]; in vitro toxicity assay): two orders of magnitude lesser toxicity; fold less toxic than MTM ([17]; mouse 3T3 fibroblast (nontumor) cells, ratio of IC50 values): more than 1500 fold; activity, times higher than that of MTM ([18]; compilation of the average log(GI50) values): up to 9 times; antitumor activity compared to parent compound MTM ([18]; initial in vitro anticancer assays by the NCI, 60 human cancer cell lines): up to two orders of magnitude better antitumor activity; concentrations revealing antiproliferative activity [19]: < 1 µg/mL
3 | CO[C@H](C(=O)[C@@H](O)[C@@H](C)O)[C@@H]1Cc2cc3cc(OC4CC(OC5CC(O)C(O)C(C)O5)C(O)C(C)O4)c(C)c(O)c3c(O)c2C(=O)[C@H]1OC1CC(OC2CC(OC3CC(C)(O)C(O)C(C)O3)C(O)C(C)O2)C(O)C(C)O1 (stereo partly drawn) [Mithramycin] | 12% | 12% |  | 224 nM |  | 186 nM |  | 224 nM |  | 166 nM |  | 191 nM |  | 251 nM |  | 186 nM |  | 126 nM |  | 257 nM | GI50 [13]: 9120 nM; GI50 [14]: 8910 nM; GI50 [15]: 12000 nM; GI50 [16]: 11200 nM; IC50 [17, 20]: 3.45 to 12.9 nM
4 | CO[C@@H]1C(=O)C(C(C)=O)=C(O)[C@@]2(O[C@H]3C[C@@H](O)[C@H](O)[C@@H](C)O3)C(=O)c3c(cc4cc(O)cc(O)c4c3O)C[C@@H]12 [Premithramycin A1, reference compound] |  |  |  |  |  |  |  |  |  |  |  |  |  |  |  |  |  |  |  |  | Percent Growth in 48 Hours, Lung (NCI-H460) [1, 21]: 68%; Percent Growth in 48 Hours, CNS (SF-268) [3, 21]: 93%
5 | CO[C@@H]1C(=O)C(C(C)=O)=C(O)[C@@]2(O[C@H]3C[C@@H](O[C@H]4C[C@@H](O[C@H]5C[C@](C)(O)[C@H](O)[C@@H](C)O5)[C@@H](O)[C@@H](C)O4)[C@H](O)[C@@H](C)O3)C(=O)c3c(cc4cc(O[C@H]5C[C@@H](O[C@H]6C[C@@H](O)[C@H](O)[C@@H](C)O6)[C@H](O)[C@@H](C)O5)c(C)c(O)c4c3O)C[C@@H]12 [Premithramycin B, reference compound] | >100% | >100% | >100% |  |  |  |  |  |  |  |  |  |  |  |  |  |  |  |  |  | 
